Source: US20030224076A1, “Anti-inflammatory and chemopreventive composition” (priority 2002, published 2003)

How the values were obtained:
Caco-2 cells = assay: Protection of intestinal cells from genotoxic agents (comet assay, menadione-induced DNA damage); type: cell-based, human; conditions: menadione 2 μM alone (induced DNA damage)
Description: The procedure for the method is as follows: The human colon adenocarcinoma cell line Caco-2 was cultivated in Dulbecco's MEM/nut mix F-12 Ham medium (Gibco) with 20% FCS (Gibco) and 1% penicillin/streptomycin (Gibco). The cells were seeded in Petri dishes (ø 35 mm) 24 h before substance incubation. After incubation with the physiological extract from carob fiber (stock solution: 10% w/v carob fiber, Caromax™, Nutrinova, in cell culture medium, working solutions: 0.001-1%), the cells were washed with PBS buffer solution (phosphate buffered salt solution) and subsequently treated with the DNA-damaging agent menadione (2 μM) and trypsinized/centrifuged. This was followed by testing for the preventive activity of the carob fiber extracts. The modulation of DNA damage by the carob fiber extracts compared with the untreated control was checked by single-cell gel electrophoresis (comet assay). The extent of DNA damage was quantified from the proportion of DNA in the comet tail (% tail intensity, TI %). The independent baseline damage was always also measured in control tests.

[1] = Reactivity toward the mediator of inflammation hypochlorous acid (ethene liberation from ACC, GC); type: biochemical; conditions: HOCl 25 μM, ACC 1 mM, pH 5.7, 37° C., 30 minutes
From the text: Reactivity Toward the Mediator of Inflammation Hypochlorous Acid (HOCl) Cytotoxic hypochlorous acid is a specific product of phagocytosis-competent neutrophilic granulocytes. It is used to kill phagocytosed bacteria and viruses inside these leukocytes. Hypochlorous acid is, however, secreted through the leukocyte membrane into the extracellular medium, i.e. into the surrounding tissue, and there proves to be responsible for unwanted reactions like those observed at foci of inflammation (pain, reddening, swelling). A possible procedure for detecting the reactivity toward HOCI is as follows. HOCI liberates ethene specifically from ACC (1-aminocyclopropane-1-carboxylic acid), and the ethene is determined by gas chromatography. The following mixture is chosen to examine the interaction of the test substance in this model system: [table] The hypochlorous acid is allowed to interact with the bulking agents for 30 seconds and only then is the indicator molecule ACC added. The volume-calibrated reaction vessels which are closed gas-tight are then incubated at 37° C. for 30 minutes, and the ethene liberation is measured by GC. 5-aminosalicylate is employed in concentrations of 0.5-100 μM as positive control.

| SMILES | TI % (proportion of DNA in the comet tail, % tail intensity) (Caco-2 cells) | Amount of ethene liberated from ACC in % ([1]; 5-aminosalicylate 0.5 μM) | Amount of ethene liberated from ACC in % ([1]; 5-aminosalicylate 1 μM) | Amount of ethene liberated from ACC in % ([1]; 5-aminosalicylate 5 μM) | Amount of ethene liberated from ACC in % ([1]; 5-aminosalicylate 10 μM) | Amount of ethene liberated from ACC in % ([1]; 5-aminosalicylate 50 μM) | Amount of ethene liberated from ACC in % ([1]; 5-aminosalicylate 100 μM) |
| --- | --- | --- | --- | --- | --- | --- | --- |
| CC1=CC(=O)c2ccccc2C1=O [menadione] | 13.6% |  |  |  |  |  |  |
| Nc1ccc(O)c(C(=O)O)c1 [5-Aminosalicylate, 5-aminosalicylate] |  | 100% | 92% | 52% | 13% | 5% | 3% |
